Source: PMC9250534, “Synthesis and direct assay of large macrocycle diversities by combinatorial late-stage modification at picomole scale” (Nature Communications, 2022)
Numbered stars: 1 amine (or outer) side, 2 acyl side, 3 side chain; on linkers, the order of the positions; unused ones are H or OH. Bridge positions count the residues as written; N and C are the ends. Square brackets hold non-standard residues; d marks the D form. Peptide text beside a SMILES is read from it. * marks the point of attachment. Nicotinoyl(6-OMe) = COc1ccc(C(=O)*)cn1; 2Thenoyl(5-Cl) = O=C(c1ccc(Cl)s1)*; Cysteamide = C(CS[*:3])N[*:1]; 2Furoyl = O=C(c1ccco1)*; Dap = NC[CH](N)C(=O)O; Mpa = O=C(O)CCS

Molecular target: T1, thrombin (Homo sapiens, UniProt P00734)
T1 construct: consists of two polypeptide chains of 36 (light chain) and 259 amino acid
Experiment: Thrombin inhibition screen of crude macrocycle reactions (residual thrombin activity, fluorogenic substrate Z-Gly-Gly-Arg-AMC)
Type: biochemical
Conditions: 10 µM macrocycle concentration; for percent residual thrombin activity: crude reactions, Library 1a-l, scaffold AA1-AA2-AA3 combined with 1-16 or '-'; for % thrombin activity, Original screen / % thrombin activity, Repeat screen: macrocycles containing acid 14, crude reaction; for % thrombin activity, Repeat screen: replicate reaction and screen
Summary of the method: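 Each crude macrocycle (10 μM) was preincubated 10 min at room temperature with thrombin (2 nM final) in Tris-Cl pH 7.4 containing NaCl, MgCl2, CaCl2, 0.1% BSA, 0.01% Triton X-100 and 0.6% DMSO. Z-Gly-Gly-Arg-AMC (50 μM final) was then added. Inhibition came from fluorescence slopes relative to DMSO-only controls.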

percent residual thrombin activity [%]	% thrombin activity, Original screen [%]	% thrombin activity, Repeat screen [%]	Structure (SMILES)
105.574			O=C1CCSSCCNC(=O)[C@H](CCCCNC(=O)c2c[nH]c(=O)[nH]c2=O)NC(=O)[C@H](Cc2ccc(O)cc2)NC(=O)C2(CC2)CN1 [B6-Y-D1/11]
108.542			C[C@H]1NC(=O)[C@H](CCCNC(=O)c2ccc(Cl)s2)NC(=O)CCSSCCNC(=O)CCNC1=O [D2-a-B2/14]
113.747			Cc1nnsc1C(=O)NCCCC[C@@H]1NC(=O)CCSSCCNC(=O)C2(CC2)CNC(=O)[C@H](Cc2cnc[nH]2)NC1=O [D1-H-B6/15]
	108.4	109.8	CC1NC(=O)CCSSCCNC(=O)C2CCCN2C(=O)C(CNC(=O)c2ccc(Cl)s2)NC1=O (stereo not drawn) [X a D4 B1] ([Mpa]A[Dap](2Thenoyl(5-Cl))P-Cysteamide; disulfide 1-C; configuration not given here)
113.964			O=C1CCSSCCNC(=O)C2(CC2)CNC(=O)[C@H](Cc2c[nH]cn2)NC(=O)[C@H](CCCCNC(=O)c2cnccn2)N1 [D1-H-B6/2]
	109.3	114.8	CC(C)C[C@@H]1NC(=O)C2(CC2)CNC(=O)CNC(=O)[C@@H](NC(=O)c2ccc(Cl)s2)CSSCCNC1=O [C G B6 L]
107.587			C[C@H]1NC(=O)CCSSCCNC(=O)[C@H](CCCCNC(=O)c2ccco2)NC(=O)CCNC1=O [a-B2-D1/16]
103.758			O=C1CCSSCCNC(=O)C2(CC2)CNC(=O)[C@H](CO)NC(=O)[C@H](CCCCNC(=O)c2c[nH]c(=O)[nH]c2=O)N1 [D1-S-B6/11]
94.7651			CC(C)C[C@@H]1NC(=O)CCSSCCNC(=O)[C@H](CCCCNC(=O)c2ccc(Cl)s2)NC(=O)C2(CC2)CNC1=O [L-B6-D1/14]

Second part, the molecule before the results:

Structure (SMILES)	percent residual thrombin activity [%]	% thrombin activity, Original screen [%]	% thrombin activity, Repeat screen [%]
O=C(NCCCC[C@@H]1NC(=O)[C@@H](Cc2c[nH]c3ccccc23)NC(=O)[C@H]2CCCN(C2)C(=O)CCSSCCNC1=O)c1ccc(Cl)s1 [B4-w-D1/14]	105.59		
CC(C)[C@@H]1NC(=O)CCSSCCNC(=O)[C@@H]2CCCN2C(=O)[C@H](CCCCNC(=O)c2ccco2)NC1=O [v-D1-B1/16] ([Mpa]VK(2Furoyl)P-Cysteamide; disulfide 1-C)	102.421		
O=C1CCSSCCNC(=O)[C@H](Cc2ccc(O)cc2)NC(=O)c2cccc(c2)CNC(=O)[C@H](CCCNC(=O)c2ccco2)N1 [D2-B5-Y/16]	100.852		
COc1ccc(C(=O)NCCC[C@@H]2NC(=O)CCSSCCNC(=O)[C@H](C(C)C)NC(=O)[C@H]3CCCN(C3)C2=O)cn1 [D2-B4-V/10]	108.833		
COc1ccc(C(=O)NCCCC[C@@H]2NC(=O)[C@H](C(C)C)NC(=O)CCSSCCNC(=O)[C@@H]3CCCN3C2=O)cn1 [V-D1-B1/10] ([Mpa]VK(Nicotinoyl(6-OMe))P-Cysteamide; disulfide 1-C)	107.385		
CC[C@H](C)[C@@H]1NC(=O)CCSSCCNC(=O)[C@H]2CCCN(C2)C(=O)[C@H](CCCCNC(=O)c2c[nH]c(=O)[nH]c2=O)NC1=O [I-D1-B4/11]	113.791		
O=C1CCSSCCNC(=O)[C@@H](Cc2ccc(O)cc2)NC(=O)CCNC(=O)[C@H](CCCCNC(=O)c2c[nH]c(=O)cn2)N1 [D1-B2-y/9]	109.951		
O=C1CCSSCCNC(=O)[C@@H](Cc2ccc(O)cc2)NC(=O)CCNC(=O)[C@H](CCCNC(=O)c2ccccc2)N1 [D2-B2-y/1]	109.22		
CC[C@H](C)[C@@H]1NC(=O)CCSSCCNC(=O)[C@H](CCCCN)NC(=O)c2cccc(c2)CNC1=O [I-B5-D1/-]	103.325		
O=C1CCNC(=O)[C@H](Cc2c[nH]cn2)NC(=O)CCSSCCNC(=O)[C@H](CCCNC(=O)c2ccco2)N1 [H-B2-D2/16]	110.75		
